{
  "source": "patent US8722043B2",
  "about": "“Induction of p53 expression by neutralization of neuropilin-2 for the treatment of cancers” (Diaclone, priority 2008, dated 2014)",
  "assay_type_in_all_cases": "cell-based, human",
  "key": {"[1]": {"test_system": "NRP-2 protein", "assay": "NRP-2 expression after siRNA transfection (flow cytometry, C9 antibody)", "details": "Colo320 cells transfected with pFiv H1/U6puro siRNA-NRP-2, from D7", "experimental": "The Colo320 line naturally expressing neuropilin-2 at its membrane surface was transfected with the plasmid pFiv H1/U6puro siRNA-NRP-2 using the Effectene® kit, Qiagen). In parallel, Colo320 cells were transfected with a control siRNA (siRNA-ctrl) provided with the pFiv H1/U6puro SiRNA expression vector kit (System Biosciences). The Colo320^siRNA-NRP-2 and Colo320^siRNA-ctrl transfected cells were then selected at D2 with 2 μg/ml of puromycin. The efficiency of the transfection was evaluated from D7 onwards by labelling with a murine anti-human NRP-2 IgG antibody (Clone C9, Santa Cruz Biotechnology) by flow cytometry: the results obtained are represented in FIG. 3.\nFor each of the panels of FIG. 3, the number of events (the number of cells) is indicated on the y-axis, the fluorescence intensity (corresponding to the label of the cells with the anti-NRP-2 antibody C9) is represented on the x-axis. The distribution curves in black lines represent the results obtained after labelling with a control antibody, the distribution curves in grey lines represent the results obtained after labelling with the C9 antibody."}, "[2]": {"test_system": "Colo320 cells", "assay": "MTT proliferation assay in the presence of siRNA-NRP-2", "details": "Colo320^siRNA-NRP-2 versus Colo320^siRNA-ctrl; 24, 48 and 72 hours", "experimental": "The MTT proliferation assay is based on the reduction of 3-(4,5-dimethylthiazol-2-yl)-2,5-diphenyltetrazolium bromide), by the mitochondrial succinate dehydrogenase of active live cells, to give formazan. The coloration intensity (OD) induced by this reaction is proportional to the number of live cells present during the assay, and to the metabolic activity thereof.\n4000 HT29ctrl, HT29-NRP-2, Colo320^siRNA-ctrl or Colo320^siRNA-NRP-2 cells were seeded into a 96-well Maxisorp plate, in 100 μl of DMEM medium containing 10% of inactivated FCS. The assay was carried out in triplicate. At 24, 48 and 72 hours, respectively, 10 μl of MTT at 5 mg/ml were added to each well. After 2 hours of incubation at 37° C., 5% CO2, 200 μl of DMSO were added to each well after shaking, and the OD was read at 570 nm using a spectrophotometer. The results of these experiments are represented in FIG. 4.\nFIGS. 4.A and 4.B are histograms representing the results obtained in the proliferation assay carried out respectively with the HT29ctrl and HT29-NRP-2 cells and with the Colo320^siRNA-ctrl and Colo320^siRNA-NRP-2 cells. The coloration intensity (the optical density “OD”) corresponding to the production of formazan by the cells is indicated on the y-axis, and the times at which the viability tests were carried out are indicated on the x-axis. […]"}, "[3]": {"test_system": "p53 protein", "assay": "p53 expression in Colo320 cells expressing siRNA-NRP-2 (flow cytometry, Western blotting)", "details": "Colo320^siRNA-NRP-2 versus Colo320^siRNA-ctrl", "source_text": "FIG. 7 represents the results obtained by flow cytometry for the HT29-ctrl (panel A), HT29-NRP-2 (panel B), Colo320^siRNA-ctrl (panel C) and Colo320^siRNA-NRP-2 (panel D) cells labelled with an anti-p53 antibody. The curves in black lines represent the results of the labelling with a control antibody, and the curves in grey lines represent the results of the labelling with the anti-p53 antibody. The number of events (the number of cells) is indicated on the y-axis, the fluorescence intensity (corresponding to the labelling of the cells with the anti-p53 antibody) is represented on the x-axis.\nThe protein extracts of the HT29-ctrl, HT29-NRP-2, Colo320^siRNA-ctrl and Colo320^siRNA-NRP-2 lines were also analysed by Western blotting using an anti-p53 antibody. After lysis of the cell lines, migration of the protein pellets obtained on a 10% polyacrylamide gel (10 μg of protein per well, standardized relative to the immunoblotting of actin), and then transfer onto a PVDF membrane, the PVDF membrane was incubated overnight with the p53 primary antibody (BD Biosciences, mouse anti-human p53) diluted to 1/500. The membranes, after washing in TBS/0.1% Tween20, were incubated for 1 hour with an anti-mouse HRP secondary antibody diluted to 1/12 500. The results are represented in FIG. 8."}},
  "data": [
    {"substance": "siRNA-NRP-2: double-stranded siRNA directed against the NRP-2 transcripts, sense SEQ ID No. 31, antisense SEQ ID No. 32, expressed from plasmid (sense GGCUGGAAGUCAGCACUAAUUU; antisense AUUAGUGCUGACUUCCAGCCUU)", "values": [
      {"measurement": "expression of the NRP-2 protein", "setting": "[1]", "result": "efficiently inhibited"},
      {"measurement": "proliferation and survival (OD at 570 nm)", "setting": "[2]", "result": "OD decreases"},
      {"measurement": "p53 expression (Western blotting)", "setting": "[3]", "result": "strongly expressed"},
      {"measurement": "p53 expression (flow cytometry)", "setting": "[3]", "result": "restoration of p53 expression"}
    ]}
  ]
}
